Measurements from PubChem BioAssay AID328 (DTP/NCI, 2004).
Values joined by “and” are separate entries in the source; they are usually repeats but may differ in a detail not shown here. Equal values may be shown once. Toxic doses and inconclusive results are not listed. Positions of bridges follow the written chain, without caps; N, C: chain ends. Non-standard residues stand in square brackets, D forms with d. Residues, ends and D or L forms follow the SMILES beside them. Aib = CC(C)(N)C(=O)O

Tested on: BDF1 mice, P388 leukemia ip, median survival T/C
Assay: NCI In Vivo Anticancer Drug Screen. Data for tumor model P388 Leukemia (intraperitoneal) in B6D2F1 (BDF1) mice
Details: endpoint: median survival time, higher = longer survival
Outline: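 Mice carrying the transplantable tumour receive compound or vehicle. Survival is followed in each arm, and the treated measure is divided by the vehicle measure.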

[1] = dose: 100.0 mg/kg/injection, schedule: Q01DX009 (ip), vehicle: saline with Tween-80
[2] = dose: 200.0 mg/kg/injection, schedule: Q01DX009 (ip), vehicle: saline with Tween-80
[3] = dose: 400.0 mg/kg/injection, schedule: Q01DX009 (ip), vehicle: saline with Tween-80
[4] = dose: 100.0 mg/kg/injection, schedule: Q01DX009 (ip), vehicle: Klucel (hydroxypropylcellulose) (HPC)
[5] = dose: 100.0 mg/kg/injection, schedule: Q04DX003 (ip), vehicle: Klucel (hydroxypropylcellulose) (HPC)
[6] = dose: 200.0 mg/kg/injection, schedule: Q04DX003 (ip), vehicle: Klucel (hydroxypropylcellulose) (HPC)
[7] = dose: 400.0 mg/kg/injection, schedule: Q04DX003 (ip), vehicle: Klucel (hydroxypropylcellulose) (HPC)
[8] = dose: 100.0 mg/kg/injection, schedule: Q04DX003 (ip), vehicle: saline with Tween-80
[9] = dose: 50.0 mg/kg/injection, schedule: Q01DX009 (ip), vehicle: saline with Tween-80
[10] = dose: 50.0 mg/kg/injection, schedule: Q01DX009 (ip), vehicle: saline
[11] = dose: 100.0 mg/kg/injection, schedule: Q01DX009 (ip), vehicle: saline
[12] = dose: 200.0 mg/kg/injection, schedule: Q01DX009 (ip), vehicle: saline
[13] = dose: 400.0 mg/kg/injection, schedule: Q01DX009 (ip), vehicle: saline
[14] = dose: 200.0 mg/kg/injection, schedule: Q04DX003 (ip), vehicle: saline with Tween-80
[15] = dose: 400.0 mg/kg/injection, schedule: Q04DX003 (ip), vehicle: saline with Tween-80

## CCOC(=O)c1c(N)sc2c1CCCCC2
[1]
  T/C: 100 % of control
[2]
  T/C: 95 % of control
[3]
  T/C: 110 % of control

## CCCCCCC(=O)/C=C/c1ccc(N(C)C)cc1
[1]
  T/C: 97 % of control
[2]
  T/C: 97 % of control
[3]
  T/C: 93 % of control

## CCCCCC/C=C/C#CCCCCCCCC(=O)O
dose: 37.5 mg/kg/injection, schedule: Q01DX009 (ip), vehicle: Klucel (hydroxypropylcellulose) (HPC)
  T/C: 106 % of control
dose: 75.0 mg/kg/injection, schedule: Q01DX009 (ip), vehicle: Klucel (hydroxypropylcellulose) (HPC)
  T/C: 100 % of control
dose: 150.0 mg/kg/injection, schedule: Q01DX009 (ip), vehicle: Klucel (hydroxypropylcellulose) (HPC)
  T/C: 109 % of control

## CCCOc1cc([N+](=O)[O-])cc([N+](=O)[O-])c1
dose: 100.0 mg/kg/injection, schedule: Q01DX001 (ip), vehicle: saline with Tween-80
  T/C: 104 % of control
dose: 200.0 mg/kg/injection, schedule: Q01DX001 (ip), vehicle: saline with Tween-80
  T/C: 94 % of control

## Cc1ccc2c(Br)cc(Br)c(O)c2n1
dose: 10.0 mg/kg/injection, schedule: Q01DX009 (ip), vehicle: Klucel (hydroxypropylcellulose) (HPC)
  T/C: 115 % of control
dose: 20.0 mg/kg/injection, schedule: Q01DX009 (ip), vehicle: Klucel (hydroxypropylcellulose) (HPC)
  T/C: 115 % of control
dose: 40.0 mg/kg/injection, schedule: Q01DX009 (ip), vehicle: Klucel (hydroxypropylcellulose) (HPC)
  T/C: 115 % of control
[4]
  T/C: 100 % of control

## CCCCCCCCC(=O)CCC
dose: 50.0 mg/kg/injection, schedule: Q04DX003 (ip), vehicle: Klucel (hydroxypropylcellulose) (HPC)
  T/C: 100 % of control
[5]
  T/C: 109 % of control
[6]
  T/C: 100 % of control
[7]
  T/C: 87 % of control

## CC(=O)O.[Au].c1ccc([PH+](c2ccccc2)c2ccccc2)cc1
[8]
  T/C: 110 % of control

## CC(=O)NN(c1ccc([N+](=O)[O-])cc1)c1ccc([N+](=O)[O-])cc1
dose: 25.0 mg/kg/injection, schedule: Q01DX009 (ip), vehicle: Klucel (hydroxypropylcellulose) (HPC)
  T/C: 109 % of control
dose: 50.0 mg/kg/injection, schedule: Q01DX009 (ip), vehicle: Klucel (hydroxypropylcellulose) (HPC)
  T/C: 109 % of control
[4]
  T/C: 100 % of control

## CCCCCn1c(C)cc(/C=C\c2ccc3cc(C)ccc3[n+]2C)c1C
dose: 0.22 mg/kg/injection, schedule: Q01DX009 (ip), vehicle: saline
  T/C: 105 % of control and 109 % of control
dose: 0.33 mg/kg/injection, schedule: Q01DX009 (ip), vehicle: saline
  T/C: 95 % of control and 110 % of control
dose: 0.5 mg/kg/injection, schedule: Q01DX009 (ip), vehicle: saline
  T/C: 109 % of control
dose: 0.5 mg/kg/injection, schedule: Q04DX003 (ip), vehicle: saline
  T/C: 118 % of control
dose: 0.75 mg/kg/injection, schedule: Q01DX009 (ip), vehicle: saline
  T/C: 90 % of control
dose: 0.88 mg/kg/injection, schedule: Q04DX003 (ip), vehicle: saline
  T/C: 108 % of control
dose: 1.0 mg/kg/injection, schedule: Q04DX003 (ip), vehicle: saline
  T/C: 120 % of control
dose: 1.32 mg/kg/injection, schedule: Q04DX003 (ip), vehicle: saline
  T/C: 112 % of control
dose: 1.5 mg/kg/injection, schedule: Q01DX009 (ip), vehicle: saline
  T/C: 90 % of control
dose: 2.0 mg/kg/injection, schedule: Q04DX003 (ip), vehicle: saline
  T/C: 104 % of control and 120 % of control
dose: 3.0 mg/kg/injection, schedule: Q04DX003 (ip), vehicle: saline
  T/C: 116 % of control

## CC(C)CC1NC(=O)CNC(=O)C(C)(C)NC(=O)C(C(C)C)NC(=O)C(C)(C)NC(=O)C(CCC(N)=O)NC(=O)C(C)NC(=O)C(C)(C)NC(=O)C(C)NC(=O)C(C)(C)NC(=O)C2CCCN2C(=O)CCC(C(=O)NC(CCC(N)=O)C(=O)O)NC(=O)C(C)(C)NC(=O)C(C)(C)NC(=O)C(C(C)C)NC(=O)C2CCCN2C(=O)C(C)(C)NC1=O (configuration not stated) (P[Aib]A[Aib]AQ[Aib]V[Aib]GL[Aib]PV[Aib][Aib]EQ-OH; lactam N-17; configuration not given here)
dose: 1.25 mg/kg/injection, schedule: Q01DX009 (ip), vehicle: water
  T/C: 118 % of control
dose: 2.5 mg/kg/injection, schedule: Q01DX009 (ip), vehicle: water
  T/C: 102 % of control

## O=c1[nH]nc(-c2ccccc2)nc1/C(=N\Nc1ccc([N+](=O)[O-])cc1)c1ccccc1
[9]
  T/C: 89 % of control
[1]
  T/C: 89 % of control
[2]
  T/C: 98 % of control

## O=[N+]([O-])c1ccc(NS(=O)(=O)c2cc(Cl)ccc2Cl)c(C(F)(F)F)c1
[9]
  T/C: 96 % of control
[1]
  T/C: 100 % of control

## O=C1C=C(NC2CCCCC2)CCC1
[10]
  T/C: 96 % of control
[11]
  T/C: 99 % of control
[12]
  T/C: 99 % of control

## O=S(=O)(O)CCO
[12]
  T/C: 92 % of control
[13]
  T/C: 100 % of control

## C=CCN(CC=C)C(=O)CCN1CC1
dose: 1.25 mg/kg/injection, schedule: Q01DX009 (ip), vehicle: saline
  T/C: 95 % of control
dose: 2.5 mg/kg/injection, schedule: Q01DX009 (ip), vehicle: saline
  T/C: 100 % of control
dose: 5.0 mg/kg/injection, schedule: Q01DX009 (ip), vehicle: saline
  T/C: 112 % of control

## O=C(O)CCCC1CCC(=O)CC1
[10]
  T/C: 90 % of control
dose: 100.0 mg/kg/injection, schedule: Q01DX001 (ip), vehicle: other
  T/C: 95 % of control
[11]
  T/C: 90 % of control
dose: 100.0 mg/kg/injection, schedule: Q04DX003 (ip), vehicle: saline
  T/C: 104 % of control
dose: 200.0 mg/kg/injection, schedule: Q01DX001 (ip), vehicle: other
  T/C: 104 % of control
[12]
  T/C: 110 % of control
dose: 200.0 mg/kg/injection, schedule: Q04DX003 (ip), vehicle: saline
  T/C: 104 % of control
dose: 400.0 mg/kg/injection, schedule: Q01DX001 (ip), vehicle: other
  T/C: 120 % of control
[13]
  T/C: 110 % of control
dose: 400.0 mg/kg/injection, schedule: Q04DX003 (ip), vehicle: saline
  T/C: 109 % of control

## O=C(O)CCS(=O)(=O)CCC(=O)O
[9]
  T/C: 100 % of control
[1]
  T/C: 100 % of control
[2]
  T/C: 100 % of control

## Cc1ccc(C(=O)CCCCl)c(C)c1
[8]
  T/C: 109 % of control
[14]
  T/C: 109 % of control
[15]
  T/C: 118 % of control

## CN(C)c1cc(=O)c2c(ccc3ccccc32)o1
dose: 6.25 mg/kg/injection, schedule: Q01DX009 (ip), vehicle: saline with Tween-80
  T/C: 117 % of control
dose: 12.5 mg/kg/injection, schedule: Q01DX009 (ip), vehicle: saline with Tween-80
  T/C: 97 % of control
dose: 25.0 mg/kg/injection, schedule: Q01DX009 (ip), vehicle: saline with Tween-80
  T/C: 106 % of control
[9]
  T/C: 106 % of control

## CCC(=O)OC1CC2(C)C(=CC1=O)CCC1C2CCC2(C)C(OC(=O)CC)CCC12 (configuration not stated)
dose: 100.0 mg/kg/injection, schedule: Q01DX001 (ip), vehicle: Klucel (hydroxypropylcellulose) (HPC)
  T/C: 90 % of control
[4]
  T/C: 104 % of control
[5]
  T/C: 108 % of control
dose: 200.0 mg/kg/injection, schedule: Q01DX001 (ip), vehicle: Klucel (hydroxypropylcellulose) (HPC)
  T/C: 95 % of control
dose: 200.0 mg/kg/injection, schedule: Q01DX009 (ip), vehicle: Klucel (hydroxypropylcellulose) (HPC)
  T/C: 109 % of control
[6]
  T/C: 100 % of control
dose: 400.0 mg/kg/injection, schedule: Q01DX001 (ip), vehicle: Klucel (hydroxypropylcellulose) (HPC)
  T/C: 100 % of control
dose: 400.0 mg/kg/injection, schedule: Q01DX009 (ip), vehicle: Klucel (hydroxypropylcellulose) (HPC)
  T/C: 109 % of control
[7]
  T/C: 95 % of control

## CCOC(=O)C(Cc1ccc(N(CCCl)CCCl)cc1)NC(=O)C(Cc1ccc([N+](=O)[O-])cc1)NC(C)=O (configuration not stated)
dose: 5.0 mg/kg/injection, schedule: Q04DX003 (ip), vehicle: other
  T/C: 105 % of control
dose: 10.0 mg/kg/injection, schedule: Q04DX003 (ip), vehicle: other
  T/C: 96 % of control
dose: 20.0 mg/kg/injection, schedule: Q04DX003 (ip), vehicle: other
  T/C: 99 % of control
dose: 40.0 mg/kg/injection, schedule: Q04DX003 (ip), vehicle: other
  T/C: 99 % of control

## C1O[C@@H]1[C@H]1CO1
dose: 25.0 mg/kg/injection, schedule: Q01DX009 (ip), vehicle: saline
  T/C: 150 % of control
dose: 37.5 mg/kg/injection, schedule: Q01DX009 (ip), vehicle: saline
  T/C: 186 % of control

## CC(=O)OCC(=O)[C@@]1(O)CC[C@H]2[C@@H]3C[C@H](C)C4=CC(=O)C=C[C@]4(C)[C@H]3[C@@H](O)C[C@@]21C
[8]
  T/C: 104 % of control
[14]
  T/C: 104 % of control
[15]
  T/C: 100 % of control
